Like-named read-outs stand apart in the source and are kept apart here.
Assays:
[1] = target: JAK1 (Homo sapiens (Human), UniProt P23458); assay: LanthaScreen JAK biochemical assay (JAK1)
[2] = target: JAK2 (Homo sapiens (Human), UniProt O60674); assay: LanthaScreen JAK biochemical assay (JAK2)
[3] = target: JAK3 (Homo sapiens (Human), UniProt P52333); assay: LanthaScreen JAK biochemical assay (JAK3)
[4] = target: Tyk2 (Homo sapiens (Human), UniProt P29597); assay: LanthaScreen JAK biochemical assay (Tyk2)
[5] = test system: IL-13 induced STAT6 phosphorylation in BEAS-2B human lung epithelial cells; assay: AlphaScreen cellular JAK potency assay, BEAS-2B
[6] = test system: oxazolone-induced colitis; assay: Mouse model of oxazolone-induced colitis; assay type: in vivo, BALB/C mice; conditions: mouse, PO, 1, 3, and/or 10 mg/kg BID
Method: Assay 7: Mouse Model of Oxazalone-Induced Colitis
Oxazolone-induced colitis is an experimental model that has a histological resemblance to human ulcerative colitis (Heller et al. Immunology, 2002, 17, 629-638). Adult BALB/C mice from Harlan were used in the assay. On day 1, animals were lightly anesthetized with isoflurane and the hairs between the shoulder were carefully removed before oxazolone (4%, 150 μL, 4:1 acetone:olive oil formulation) or vehicle solution was slowly applied for skin sensitization. Seven days after skin sensitization, the mice were fasted overnight, anesthetized with isoflurane inhalation, and a 1 mL syringe equipped with a 3.5-F catheter, filled with oxazolone solution, was inserted carefully about 4 cm into the colon of the mouse. Following insertion, 50 μL of the oxazolone solution (1%, 1:1 ethanol:water formulation) was injected very slowly (over 30 sec using an injection pump) into the colon. The catheter was removed and the mice were held vertically (head down) for 2 min to ensure that the entire oxazolone solution remained inside the colon. Drug treatment (PO, BID or TID) or vehicle was initiated a day prior to the oxazolone intrarectal (IR) challenge. Two-day post oxazolone intrarectal challenge, the Disease Activity Index (DAI) was assessed by treatment-blinded experimenters for each mouse according to the criteria score: stool consistency score (0, normal; 2, loose; 4, diarrhea), gross bleeding score (0, absence; 2, blood tinged; 4, presence), and weight loss score (0, none; 1, 1%-5%; 2, 5%-10%; 3, 10%-20%; 4, more than 20%); DAI=average of (stool consistency score+gross bleeding score+weight loss score).
Selected compounds of the invention were tested in the assay. Efficacy in the model is evidenced by a decrease in DAI score as compared with the score from vehicle treated animals.

[7] = test system: IL-4 induced STAT6 phosphorylation in THP-1 human monocytic cells; assay: Cellular JAK potency assay, THP-1
[8] = IL-13 induced STAT6 phosphorylation, BEAS-2B cells
[9] = Homo sapiens, THP-1, read-out: THP-1 IL4 pIC50 (converted)
[10] = THP-1 cells, IL-4 induced STAT6 phosphorylation
[11] = BEAS-2B cells, IL-13 induced STAT6 phosphorylation

Chain of JAK2 (O60674 whole entry): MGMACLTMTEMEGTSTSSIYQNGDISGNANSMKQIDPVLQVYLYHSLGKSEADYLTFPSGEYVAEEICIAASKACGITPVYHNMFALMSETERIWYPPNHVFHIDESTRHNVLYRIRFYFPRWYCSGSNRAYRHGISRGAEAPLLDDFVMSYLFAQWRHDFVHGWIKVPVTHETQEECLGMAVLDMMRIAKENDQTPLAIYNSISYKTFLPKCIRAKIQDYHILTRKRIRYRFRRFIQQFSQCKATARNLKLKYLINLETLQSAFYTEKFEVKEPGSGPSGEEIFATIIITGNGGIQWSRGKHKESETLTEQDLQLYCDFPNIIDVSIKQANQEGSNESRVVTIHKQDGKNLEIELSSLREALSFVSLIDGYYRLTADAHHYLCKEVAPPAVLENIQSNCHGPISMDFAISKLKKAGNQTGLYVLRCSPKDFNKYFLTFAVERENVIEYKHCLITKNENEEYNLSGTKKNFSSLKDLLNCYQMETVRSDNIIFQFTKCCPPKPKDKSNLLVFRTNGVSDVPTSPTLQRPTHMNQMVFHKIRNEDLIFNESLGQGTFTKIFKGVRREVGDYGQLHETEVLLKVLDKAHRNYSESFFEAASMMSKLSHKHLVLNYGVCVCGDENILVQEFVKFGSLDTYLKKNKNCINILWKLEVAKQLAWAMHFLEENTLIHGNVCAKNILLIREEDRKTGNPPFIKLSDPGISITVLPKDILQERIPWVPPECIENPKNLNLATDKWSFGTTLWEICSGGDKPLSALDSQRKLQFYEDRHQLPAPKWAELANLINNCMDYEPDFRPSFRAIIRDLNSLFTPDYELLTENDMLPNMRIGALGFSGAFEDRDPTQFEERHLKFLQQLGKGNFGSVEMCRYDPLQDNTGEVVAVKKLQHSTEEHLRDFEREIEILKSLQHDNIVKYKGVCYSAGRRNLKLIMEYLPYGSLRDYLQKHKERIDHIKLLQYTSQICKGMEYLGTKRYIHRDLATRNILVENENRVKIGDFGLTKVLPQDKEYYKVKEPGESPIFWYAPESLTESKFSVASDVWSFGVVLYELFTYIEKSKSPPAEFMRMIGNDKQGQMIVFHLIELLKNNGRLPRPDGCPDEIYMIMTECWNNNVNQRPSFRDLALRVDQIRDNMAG
Chain of Tyk2 (P29597 whole entry): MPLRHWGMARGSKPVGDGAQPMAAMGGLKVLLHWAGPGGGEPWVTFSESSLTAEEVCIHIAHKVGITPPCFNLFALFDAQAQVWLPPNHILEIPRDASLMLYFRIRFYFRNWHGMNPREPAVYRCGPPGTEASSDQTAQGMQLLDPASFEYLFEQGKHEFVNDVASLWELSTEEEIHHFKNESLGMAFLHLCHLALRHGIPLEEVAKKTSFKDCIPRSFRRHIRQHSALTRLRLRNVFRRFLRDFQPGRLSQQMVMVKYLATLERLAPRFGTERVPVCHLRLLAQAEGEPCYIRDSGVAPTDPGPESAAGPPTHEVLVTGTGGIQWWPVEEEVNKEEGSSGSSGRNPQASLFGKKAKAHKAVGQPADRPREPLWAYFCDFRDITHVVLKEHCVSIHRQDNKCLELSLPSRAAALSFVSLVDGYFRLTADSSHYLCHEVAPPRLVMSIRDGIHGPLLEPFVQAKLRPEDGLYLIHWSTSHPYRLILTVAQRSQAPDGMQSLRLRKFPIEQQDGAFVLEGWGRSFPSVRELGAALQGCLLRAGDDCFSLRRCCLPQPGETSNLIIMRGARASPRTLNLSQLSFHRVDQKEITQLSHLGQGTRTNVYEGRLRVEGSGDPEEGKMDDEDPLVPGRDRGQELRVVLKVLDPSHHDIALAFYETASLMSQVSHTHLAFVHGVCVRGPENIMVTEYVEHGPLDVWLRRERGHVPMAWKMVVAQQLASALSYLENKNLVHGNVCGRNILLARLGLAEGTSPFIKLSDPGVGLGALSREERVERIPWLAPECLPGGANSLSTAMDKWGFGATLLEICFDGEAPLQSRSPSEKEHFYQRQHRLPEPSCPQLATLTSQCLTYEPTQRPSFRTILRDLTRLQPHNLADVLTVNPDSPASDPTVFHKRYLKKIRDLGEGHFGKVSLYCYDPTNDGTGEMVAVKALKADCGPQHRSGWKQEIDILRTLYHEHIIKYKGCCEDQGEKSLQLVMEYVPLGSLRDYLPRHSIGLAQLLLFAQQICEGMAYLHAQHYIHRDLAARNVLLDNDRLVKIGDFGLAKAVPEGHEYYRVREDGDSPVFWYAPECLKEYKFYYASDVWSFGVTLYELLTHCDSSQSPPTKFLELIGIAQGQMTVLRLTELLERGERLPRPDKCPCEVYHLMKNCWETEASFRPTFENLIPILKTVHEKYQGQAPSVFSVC
Chain of JAK1 (P23458 whole entry): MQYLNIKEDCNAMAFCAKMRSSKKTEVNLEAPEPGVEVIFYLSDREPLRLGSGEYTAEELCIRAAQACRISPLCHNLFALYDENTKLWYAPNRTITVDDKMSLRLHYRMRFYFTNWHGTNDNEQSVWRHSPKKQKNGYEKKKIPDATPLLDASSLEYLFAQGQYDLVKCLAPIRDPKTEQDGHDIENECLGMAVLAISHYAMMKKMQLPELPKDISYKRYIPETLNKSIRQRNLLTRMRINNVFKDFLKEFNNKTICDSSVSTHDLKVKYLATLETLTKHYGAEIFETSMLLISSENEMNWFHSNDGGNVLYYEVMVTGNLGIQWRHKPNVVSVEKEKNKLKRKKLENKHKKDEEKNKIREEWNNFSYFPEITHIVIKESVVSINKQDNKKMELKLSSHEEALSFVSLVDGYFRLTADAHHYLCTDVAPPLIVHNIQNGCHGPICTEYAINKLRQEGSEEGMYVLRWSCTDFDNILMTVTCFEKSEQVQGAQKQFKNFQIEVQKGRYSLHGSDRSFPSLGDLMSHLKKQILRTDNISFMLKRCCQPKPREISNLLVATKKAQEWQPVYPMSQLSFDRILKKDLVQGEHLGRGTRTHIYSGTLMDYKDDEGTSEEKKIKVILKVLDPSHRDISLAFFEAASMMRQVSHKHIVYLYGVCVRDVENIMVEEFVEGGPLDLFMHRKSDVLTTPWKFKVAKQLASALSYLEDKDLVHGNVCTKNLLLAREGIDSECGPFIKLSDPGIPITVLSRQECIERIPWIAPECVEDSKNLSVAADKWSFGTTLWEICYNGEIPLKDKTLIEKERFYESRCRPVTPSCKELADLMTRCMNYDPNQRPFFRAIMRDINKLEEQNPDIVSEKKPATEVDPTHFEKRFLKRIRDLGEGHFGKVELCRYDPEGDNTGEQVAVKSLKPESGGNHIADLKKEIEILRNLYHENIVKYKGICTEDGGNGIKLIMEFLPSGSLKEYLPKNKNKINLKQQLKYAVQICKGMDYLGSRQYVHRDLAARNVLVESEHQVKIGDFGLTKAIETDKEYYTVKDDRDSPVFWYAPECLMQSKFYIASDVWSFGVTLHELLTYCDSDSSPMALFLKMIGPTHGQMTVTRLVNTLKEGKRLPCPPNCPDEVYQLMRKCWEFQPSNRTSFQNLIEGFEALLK

SMILES	JAK 1 (pKi) [1]	JAK 2 (pKi) [2]	JAK 3 (pKi) [3]	Tyk 2 (pKi) [4]	THP-1 IL4 pIC50 [7, 10]	BEAS2B pIC50 [5, 11]	other results
Cc1cc(Nc2cc3ncccc3c(N[C@@H]3C[C@H]4CCC[C@@H](C3)N4C(=O)OCC3CC3)n2)n[nH]1 [Example 3-10]	B (B represents a pKi value between 9 and 10 (Ki between 1 nM and 0.1 nM))	B (B represents a pKi value between 9 and 10 (Ki between 1 nM and 0.1 nM))	C (C represents a pKi value between 7 and 9 (Ki between 100 nM and 1 nM))	B (B represents a pKi value between 9 and 10 (Ki between 1 nM and 0.1 nM))			BEAS2B pIC50 [5, 8]: B (B represents a pEC50 value between 6.7 and 7.5 (EC50 between 200 nM and 32 nM))
Cc1cc(Nc2cc3ncccc3c(N[C@@H]3C[C@H]4CCC[C@@H](C3)N4C(=O)CN(C)C)n2)n[nH]1 [Example 4, 2-(Dimethylamino)-1-((1R,3s,5S)-3-((7-((5-methyl-1H-pyrazol-3-yl)amino)-1,6-naphthyridin-5-yl)amino)-9-azabicyclo[3.3.1]nonan-9-yl)ethan-1-one]							Ki [1]: 0.1 to 1 nM; Ki ([2]; read-out: JAK 2 (pKi) (converted)): 0.1 to 1 nM; decrease in DAI score as compared with vehicle treated animals [6]: statistically significant decrease; IC50 [7, 9]: 31.6 to 200 nM
Cc1cc(Nc2cc3ncccc3c(N[C@@H]3C[C@H]4CCC[C@@H](C3)N4S(=O)(=O)CC3CC3)n2)n[nH]1 [Example 4-23]							decrease in DAI score as compared with vehicle treated animals [6]: did not exhibit a statistically significant decrease; THP-1 IL4 pIC50 ([7]; IL-4 induced STAT6 phosphorylation, THP-1 cells): A (A represents a pEC50 value≥7.5 (EC50≤32 nM)); BEAS2B pIC50 [5, 8]: A (A represents a pEC50 value≥7.5 (EC50≤32 nM))
COCCS(=O)(=O)N1[C@@H]2CC[C@H]1C[C@H](Nc1nc(Nc3cc(C)[nH]n3)cc3ncccc13)C2 [Example 6, N^5-((1R,3s,5S)-8-((2-methoxyethyl)sulfonyl)-8-azabicyclo[3.2.1]octan-3-yl)-N^7-(5-methyl-1H-pyrazol-3-yl)-1,6-naphthyridine-5,7-diamine]							decrease in DAI score as compared with vehicle treated animals [6]: statistically significant decrease
Cc1cnc2cc(Nc3cc(C)[nH]n3)nc(N[C@@H]3C[C@H]4CC[C@@H](C3)N4CCC#N)c2c1 [Example 6-1]	B (B represents a pKi value between 9 and 10 (Ki between 1 nM and 0.1 nM))	B (B represents a pKi value between 9 and 10 (Ki between 1 nM and 0.1 nM))	C (C represents a pKi value between 7 and 9 (Ki between 100 nM and 1 nM))	B (B represents a pKi value between 9 and 10 (Ki between 1 nM and 0.1 nM))	A (A represents a pEC50 value≥7.5 (EC50≤32 nM))	A (A represents a pEC50 value≥7.5 (EC50≤32 nM))	
Cc1cnc2cc(Nc3cc(C)[nH]n3)nc(N[C@@H]3C[C@H]4CC[C@@H](C3)N4S(C)(=O)=O)c2c1 [Example 6-5]		A (A represents a pKi value≥10 (Ki≤0.1 nM))					Ki ([1]; read-out: JAK 1 (pKi) (converted)): 0.1 to 1 nM; Ki ([3]; read-out: JAK 3 (pKi) (converted)): 1 to 100 nM; Ki ([4]; read-out: Tyk 2 (pKi) (converted)): 0.1 to 1 nM; IC50 [7, 9]: < 31.6 nM; IC50 ([5]; Homo sapiens, BEAS-2B, read-out: BEAS2B pIC50 (converted)): < 31.6 nM
COc1cnc2cc(Nc3cc(C)[nH]n3)nc(N[C@@H]3C[C@H]4CC[C@@H](C3)N4S(=O)(=O)CCC#N)c2c1 [Example 6-22]	B (B represents a pKi value between 9 and 10 (Ki between 1 nM and 0.1 nM))	B (B represents a pKi value between 9 and 10 (Ki between 1 nM and 0.1 nM))	C (C represents a pKi value between 7 and 9 (Ki between 100 nM and 1 nM))	B (B represents a pKi value between 9 and 10 (Ki between 1 nM and 0.1 nM))		B (B represents a pEC50 value between 6.7 and 7.5 (EC50 between 200 nM and 32 nM))	
COC(=O)c1cnc2cc(Nc3cc(C)[nH]n3)nc(N[C@@H]3C[C@H]4CCC[C@@H](C3)N4CCC#N)c2c1 [Example 6-47]	A (A represents a pKi value≥10 (Ki≤0.1 nM))	A (A represents a pKi value≥10 (Ki≤0.1 nM))	B (B represents a pKi value between 9 and 10 (Ki between 1 nM and 0.1 nM))	B (B represents a pKi value between 9 and 10 (Ki between 1 nM and 0.1 nM))	A (A represents a pEC50 value≥7.5 (EC50≤32 nM))	A (A represents a pEC50 value≥7.5 (EC50≤32 nM))	
COC(=O)c1cnc2cc(Nc3cc(C)[nH]n3)nc(N[C@@H]3C[C@H]4CCC[C@@H](C3)N4C[C@H]3CCC(=O)O3)c2c1 [Example 6-49]	B (B represents a pKi value between 9 and 10 (Ki between 1 nM and 0.1 nM))	B (B represents a pKi value between 9 and 10 (Ki between 1 nM and 0.1 nM))	C (C represents a pKi value between 7 and 9 (Ki between 100 nM and 1 nM))	C (C represents a pKi value between 7 and 9 (Ki between 100 nM and 1 nM))	B (B represents a pEC50 value between 6.7 and 7.5 (EC50 between 200 nM and 32 nM))		
Cc1cc(Nc2nc(NC3CC4CCC(C3)N4C(=O)C(C)O)c3cccnc3c2F)n[nH]1 (stereo not drawn) [Example 8-8]	C (C represents a pKi value between 7 and 9 (Ki between 100 nM and 1 nM))	C (C represents a pKi value between 7 and 9 (Ki between 100 nM and 1 nM))	C (C represents a pKi value between 7 and 9 (Ki between 100 nM and 1 nM))	C (C represents a pKi value between 7 and 9 (Ki between 100 nM and 1 nM))	C (C represents a pEC50 value<6.7 (EC50>200 nM))		
Cc1cc(Nc2nc(N[C@@H]3C[C@H]4CCC[C@@H](C3)N4S(=O)(=O)c3ccccc3)c3cccnc3c2F)n[nH]1 [Example 8-11]	B (B represents a pKi value between 9 and 10 (Ki between 1 nM and 0.1 nM))	B (B represents a pKi value between 9 and 10 (Ki between 1 nM and 0.1 nM))	C (C represents a pKi value between 7 and 9 (Ki between 100 nM and 1 nM))	C (C represents a pKi value between 7 and 9 (Ki between 100 nM and 1 nM))	B (B represents a pEC50 value between 6.7 and 7.5 (EC50 between 200 nM and 32 nM))	A (A represents a pEC50 value≥7.5 (EC50≤32 nM))	
Cc1cc(Nc2nc(NC3CC4CCCC(C3)N4C(=O)C(C)O)c3cccnc3c2F)n[nH]1 (stereo not drawn) [Example 8-16]	B (B represents a pKi value between 9 and 10 (Ki between 1 nM and 0.1 nM))	B (B represents a pKi value between 9 and 10 (Ki between 1 nM and 0.1 nM))	C (C represents a pKi value between 7 and 9 (Ki between 100 nM and 1 nM))	C (C represents a pKi value between 7 and 9 (Ki between 100 nM and 1 nM))	B (B represents a pEC50 value between 6.7 and 7.5 (EC50 between 200 nM and 32 nM))		

Source: patent US10072026B2, “Crystalline form of 3-((1R,3s,5S)-3-((7-((5-methyl-1H-pyrazol-3-yl)amino)-1,6-naphthyridin-5-yl)amino)-8-azabicyclo[3.2.1]octan-8-yl)propanenitrile” (priority 2015, dated 2018)
